Test results from patent publication US11786512B2, “Stable pharmaceutical compositions of dihydroergotamine mesylate” (Slayback Pharma LLC, priority 2019, dated 2023).
Structures can show the parent of a compound that is named as a salt. Where two headings read alike, the source gives them in different places.

Key:
migraine = settings: cited from earlier work
[1] = Rate of epimerization of DHE mesylate as a function of pH; format: physicochemical
Excerpt: Maintaining the pH above 5.0 in the compositions prepared according to the present invention results in a better stability profile when compared to DHE 45 maintained at a pH of 3.4-4.9.

SMILES | onset of therapeutic efficacy (migraine; intranasal) [min] | onset of therapeutic efficacy (migraine; oral or sublingual delivery) [min] | onset of action (migraine; parenteral administration) | rate of epimerization ([1]; pH of less than 4.0) | rate of epimerization ([1]; pH of more than 5.0)
CN1C[C@H](C(=O)N[C@]2(C)O[C@@]3(O)[C@@H]4CCCN4C(=O)[C@H](Cc4ccccc4)N3C2=O)C[C@@H]2c3cccc4[nH]cc(c34)C[C@H]21 [DHE, Dihydroergotamine] | 45 | 120 | less than 30 minutes | – | –
CN1C[C@H](C(=O)N[C@]2(C)O[C@@]3(O)[C@@H]4CCCN4C(=O)[C@H](Cc4ccccc4)N3C2=O)C[C@@H]2c3cccc4[nH]cc(c34)C[C@H]21 [DHE mesylate, Dihydroergotamine mesylate] | – | – | – | higher | significantly lesser
